9 molecules from PubChem BioAssay (NCI) can be followed below.

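All cell lines were grown in 96-well plates and treated with compound for 48 hours. GI50: concentration for 50% inhibition of growth. At the TGI there is no net growth.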

Holding throughout (assay): NCI-60 cell line screen, 48 h
Assay [1] deals with SW-620 colon.
In assay [2] the test system is HOP-92 NSCLC.
The subject of assay [3] is DU-145 prostate.
The test system of assay [4] is IGROV1 ovarian.
The subject of assay [5] is SR leukemia.
The subject of assay [6] is SK-OV-3 ovarian.
Assay [7] deals with MCF7 breast.
The test system of assay [8] is HCT-15 colon.

Turning to `COC(=O)Nc1nc2ccc(S(=O)c3ccccc3)cc2[nH]1` (stereo unspecified), the GI50 in assay [1] is 3.63 µM; in assay [2], 9.88 µM; in assay [3], 31 µM; in assay [4], 7.51 µM; in assay [5] it was 2.25 µM; in assay [6], 3.23 µM. Further, the GI50 in assay [7] was 3.12 µM; in assay [8], 4.58 µM. The TGI is greater than 100 µM in assay [1]; greater than 100 µM in assay [2]; greater than 100 µM in assay [3]; greater than 100 µM in assay [4]; greater than 100 µM in assay [5]; 12.4 µM in assay [6]. In addition, the TGI in assay [7] and in assay [8] was greater than 100 µM each time.
As to `O=C(CN1CCN(c2cc3c(cc2F)c(=O)c(C(=O)N/N=C/c2ccccc2O)cn3C2CC2)CC1)N/N=C\c1ccccc1O`, the GI50 was 0.475 µM in assay [1]; 2.15 µM in assay [2]; 0.716 µM in assay [3]; 0.787 µM in assay [4]; 0.304 µM in assay [5]; 0.763 µM in assay [6]. The GI50 in assay [7] is 0.398 µM; in assay [8], 0.33 µM. Besides, the TGI in assay [1], in assay [2], in assay [3], in assay [4], in assay [5] and in assay [6] was greater than 100 µM each time. Moreover, the TGI in assay [7] and in assay [8] was greater than 100 µM throughout.
`O=c1n(CC2CO2)c(=O)n(CC2CO2)n1CC1CO1` (stereo unspecified): the GI50 in assay [1] is 22.5 µM; in assay [2] it was 49.3 µM; in assay [3], 3.58 µM; in assay [4], 13.2 µM; in assay [6] it was 8.37 µM; in assay [7] it was 3.68 µM. Further, the GI50 in assay [8] is 11.1 µM. The TGI in assay [1] is greater than 100 µM; in assay [2], greater than 100 µM; in assay [3], greater than 61.3 µM; in assay [4], 41.1 µM; in assay [5], greater than 100 µM; in assay [6], greater than 80.2 µM. The results for the TGI in assay [7] and in assay [8] were greater than 100 µM and 44.3 µM, respectively.
As to `CN(C)c1ccc(-c2cc(-c3ccc(Nc4nc(Nc5ccc(Cl)cc5)nc(Nc5ccc(Cl)cc5)n4)cc3)no2)cc1`, the GI50 is 6.28 µM in assay [1]; 2.69 µM in assay [2]; 3.86 µM in assay [3]; 2.06 µM in assay [4]; 20 µM in assay [6]; 2.46 µM in assay [7]. Also, the GI50 in assay [8] was 5.2 µM. Moreover, the TGI in assay [1] was greater than 100 µM; in assay [2] it was 10.6 µM; in assay [3], 16.4 µM; in assay [4], 15 µM; in assay [5], 1.74 µM; in assay [6] it was 67 µM. Besides, the TGI in assay [7] is 10.7 µM; in assay [8], greater than 100 µM.
For the molecule `Fc1ccc(Nc2ncnc3ccc(-c4cnc5[nH]ccc5c4)cc23)cc1Cl`, the GI50 in assay [1] was 4.02 µM; in assay [2] it was 1.68 µM; in assay [3] it was 4.58 µM; in assay [4] it was 0.45 µM; in assay [5], 2.68 µM; in assay [6], 4.62 µM. Besides, the GI50 in assay [7] is 0.335 µM; in assay [8] it was 3.24 µM. Also, the TGI in assay [1] was greater than 47.3 µM; in assay [2] it was 5.49 µM; in assay [3], greater than 93.3 µM; in assay [4], 3.41 µM; in assay [5], greater than 100 µM; in assay [6], 32.6 µM. Further, the figures for the TGI in assay [7] and in assay [8] were greater than 38 µM and greater than 76.5 µM, respectively.
On to `c1cc2c(cc1NC1=NCCO1)CCC2`, for which the TGI in assay [1], in assay [2], in assay [4], in assay [5], in assay [6] and in assay [7] was greater than 10 µM each time. In addition, in assay [8], the TGI was greater than 10 µM.
For `NC(CSC(c1ccccc1)(c1ccccc1)c1ccc2c(c1)OCO2)C(=O)O` (stereo unspecified), the GI50 in assay [1] is 0.396 µM; in assay [2], 0.75 µM; in assay [3] it was 2.33 µM; in assay [4], 2.5 µM; in assay [5] it was 0.285 µM; in assay [6] it was 0.42 µM. For the same molecule, the GI50 is 0.298 µM in assay [7] and 1.15 µM in assay [8]. Also, the TGI is greater than 100 µM in assay [1]; 36.9 µM in assay [2]; 6.88 µM in assay [3]; greater than 100 µM in assay [4]; 0.868 µM in assay [5]; greater than 100 µM in assay [6]. The TGI in assay [7] is 40.2 µM; in assay [8], greater than 81 µM.
For `O=C1/C(=C/c2ccc([N+](=O)[O-])cc2)COc2ccc(O)c(O)c21`, the GI50 in assay [1] is 1.31 µM; in assay [2] it was 1.99 µM; in assay [3] it was 1.46 µM; in assay [4], 1.25 µM; in assay [5], 0.463 µM; in assay [6] it was 2.98 µM. In addition, in assay [8], the GI50 was 0.606 µM. The TGI is 3.07 µM in assay [1]; 4.96 µM in assay [2]; 2.85 µM in assay [3]; 3.55 µM in assay [4]; greater than 100 µM in assay [5]; 9.62 µM in assay [6]. In assay [8], this molecule showed a TGI of 3.55 µM.
Turning to `O=C(Nc1ccc(I)cc1)c1cc([N+](=O)[O-])ccc1O`, the GI50 in assay [1] is 15.5 µM; in assay [2], 0.709 µM; in assay [3], 17 µM; in assay [4] it was 13.8 µM; in assay [5], 6.09 µM; in assay [6] it was 6.15 µM. In addition, the GI50 was 3.93 µM in assay [7] and 5.77 µM in assay [8]. Also, the TGI is 54.5 µM in assay [1]; 3.99 µM in assay [2]; greater than 100 µM in assay [3]; greater than 100 µM in assay [4]; 46.5 µM in assay [5]; greater than 100 µM in assay [6]. Further, the TGI is greater than 100 µM in assay [7] and 38.9 µM in assay [8].
